Columns and labels:
[1] = test system: neurons from D3 embryonic stem (ES) cells; assay: Cell culture model for chemical ischemia and neuroprotection (calcium imaging of surviving neurons); format: cell-based, mice; conditions: β-methyl-cyclodextrin or filipin
Procedure: For all experiments, D3 embryonic stem (ES) cells derived from 129/sv mice [Okabe et al., 1996] were cultivated for 12 days, with passages on days 2, 4, 7 and 9 as described previously [Sommer et al., 2004]. Insult conditions: Cells (24-well plates) were pre-incubated with or without 20 nM EPO in fresh medium for 24 hours at 37° C. Cells were rinsed once with low K^+ solution (140 mM NaCl, 4.7 mM KCl, 1.2 mM KH2PO4, 2.5 mM CaCl2, 1.2 mM MgSO4, 11 mM glucose, 15 mM Hepes-NaOH, pH 7.35). Cells (either with or without EPO pre-incubation) were incubated for up to 45 min (37° C.) with either low K^+ solution or with glucose-free low K^+ solution supplemented with 1 mM KCN (chemical ischemia solution [Kume et al., 2002]). Vitality control to asses numbers of surviving neurons was performed by a brief stimulation with a low dose of glutamate (10 μM).
Functional tests by calcium imaging were performed essentially as described [Sommer et al., 2004]. Briefly, cells were loaded with 2 μM of fura-2 AM in DMEM for 45 min at 37° C. in the dark. Measurements of relative changes in [Ca^2+] were made on an inverted epifluorescence microscope (Olympus IX70 S1F2) with a Polychrom IV Monochromator (Xe-lamp, USHIO). Excitation wavelengths (λ1, λ2) and the emission wavelength were 340, 380 and 510 nm, respectively. […]

[2] = test system: A 549 cells; assay: LPS challenge, cell survival by Trypan Blue; format: cell-based; conditions: LPS 100 ng/ml for 60 min
Procedure: (§1) Cell pellets were further investigated by Western blot staining with anti Cox-2 and anti iNOS antibodies of 1D polyacrylamide gels.
(§2) Cell survival was assessed by Trypan Blue staining.

[3] = test system: neurally differentiated V56 embryonic stem cells; assay: LPS challenge, cell survival by Trypan Blue; format: cell-based; conditions: LPS 100 ng/ml for 60 min
Procedure: as §1, §2

[4] = test system: 3T3 fibroblasts; assay: LPS challenge, cell survival by Trypan Blue; format: cell-based; conditions: LPS 100 ng/ml for 60 min
Procedure: as §1, §2

[5] = test system: undifferentiated V56 embryonic stem cells; assay: LPS challenge, cell survival by Trypan Blue; format: cell-based; conditions: LPS 100 ng/ml for 60 min
Procedure: as §1, §2

[6] = target: T1, recombinant monomeric PARP-1 (Homo sapiens, UniProt P09874); assay: PARP inhibition assay (R&D Systems); format: biochemical; conditions: FIG. 4b
T1 construct: purchased R&D Systems TA4669
Excerpt: A PARP inhibition assay from R&D Systems was used (Cat.No. TA4669) according to instructions of the supplier.
Under cellular conditions PARP-1 poly-ADP-ribosylates a host of nuclear proteins, including topoisomerase 1, 14-3-3 g and PARP-1 itself. Thus under cellular conditions, the self-modification of PARP-1 and dimerization are regulating its activity, moreover there is a tight interplay with PARG (poly-ADP- ribosyl-glycohydroxylase).

[7] = test system: PARP-1; assay: Affinity tag enrichment from cell extracts (1D PAGE, MALDI-TOF, immunostaining); format: binding
Procedure: (§3) A reactive —SCN group is introduced which binds to lysines in or near the binding site of the compound. A biotinylated linker serves for enrichment of bound protein. The synthesis is described in FIG. 1.
(§4) The affinity reagent 11 was used to bind the target covalently from fractionations of crude cell extracts of D3 ES cells and other cell lines, subsequently the affinity purified material was analysed by 1D PAGE, immunostaining, and mass spectrometry.
(§5) The subsequent fractionation, isolation and further analysis was performed according to published standard procedures (Sommer et al. 2004). A commercial anti-PARP antibody was used for staining Western blots. Mass spectrometry for independent identification of pirenzepine-tagged proteins was performed as described elsewhere recently (Vogt et al., 2003, Cahill et al., 2003).
(§6) A reactive —SCN group binds to lysins in or near the binding site of the compound. A biotinylated linker serves for enrichment of bound protein. The final affinity reagent, thiocyanato-11-[2-(4-biocytinyl-piperazin-1-yl)-acetyl]-5,11-dihydro-benzo[e]pyrido [3,2-b] [1,4] diazepin-6-one (compound (11), FIG. 1), was used to bind the target covalently from fractionations of crude cell extracts of D3 embryonic stem cells, subsequently the affinity purified material was analysed by 1D PAGE (FIG. 3a), mass spectrometry and immunostaining. […]

[8] = target: T2, SIR-2 (Mus musculus, UniProt Q923E4); assay: as above; format: binding
T2 construct: endogenous in cells; host or cells: D3 embryonic stem cells / V56 embryonic stem cells (crude extract)
T2 sequence (Q923E4 1-737): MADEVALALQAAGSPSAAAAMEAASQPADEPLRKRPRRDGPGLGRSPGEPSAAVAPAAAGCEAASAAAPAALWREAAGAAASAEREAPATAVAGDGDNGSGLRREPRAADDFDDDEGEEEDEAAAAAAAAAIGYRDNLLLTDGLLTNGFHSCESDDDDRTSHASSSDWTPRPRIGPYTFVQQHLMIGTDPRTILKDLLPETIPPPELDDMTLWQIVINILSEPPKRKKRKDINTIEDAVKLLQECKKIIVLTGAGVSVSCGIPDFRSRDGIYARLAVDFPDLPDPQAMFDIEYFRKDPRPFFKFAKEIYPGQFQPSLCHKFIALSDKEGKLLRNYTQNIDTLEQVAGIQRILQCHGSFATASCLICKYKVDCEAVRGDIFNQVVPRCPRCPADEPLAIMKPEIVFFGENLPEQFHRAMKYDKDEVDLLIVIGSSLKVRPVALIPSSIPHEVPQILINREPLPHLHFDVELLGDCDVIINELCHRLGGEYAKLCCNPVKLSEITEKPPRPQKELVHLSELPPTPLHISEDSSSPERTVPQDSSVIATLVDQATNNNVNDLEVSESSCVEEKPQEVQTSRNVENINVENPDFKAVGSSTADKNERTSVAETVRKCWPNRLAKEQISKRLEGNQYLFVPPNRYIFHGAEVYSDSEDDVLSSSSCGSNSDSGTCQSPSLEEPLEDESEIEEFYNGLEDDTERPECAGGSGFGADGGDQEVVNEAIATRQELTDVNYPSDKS
Procedure: as §3, §4, §5, §6

T1 sequence (P09874 whole entry): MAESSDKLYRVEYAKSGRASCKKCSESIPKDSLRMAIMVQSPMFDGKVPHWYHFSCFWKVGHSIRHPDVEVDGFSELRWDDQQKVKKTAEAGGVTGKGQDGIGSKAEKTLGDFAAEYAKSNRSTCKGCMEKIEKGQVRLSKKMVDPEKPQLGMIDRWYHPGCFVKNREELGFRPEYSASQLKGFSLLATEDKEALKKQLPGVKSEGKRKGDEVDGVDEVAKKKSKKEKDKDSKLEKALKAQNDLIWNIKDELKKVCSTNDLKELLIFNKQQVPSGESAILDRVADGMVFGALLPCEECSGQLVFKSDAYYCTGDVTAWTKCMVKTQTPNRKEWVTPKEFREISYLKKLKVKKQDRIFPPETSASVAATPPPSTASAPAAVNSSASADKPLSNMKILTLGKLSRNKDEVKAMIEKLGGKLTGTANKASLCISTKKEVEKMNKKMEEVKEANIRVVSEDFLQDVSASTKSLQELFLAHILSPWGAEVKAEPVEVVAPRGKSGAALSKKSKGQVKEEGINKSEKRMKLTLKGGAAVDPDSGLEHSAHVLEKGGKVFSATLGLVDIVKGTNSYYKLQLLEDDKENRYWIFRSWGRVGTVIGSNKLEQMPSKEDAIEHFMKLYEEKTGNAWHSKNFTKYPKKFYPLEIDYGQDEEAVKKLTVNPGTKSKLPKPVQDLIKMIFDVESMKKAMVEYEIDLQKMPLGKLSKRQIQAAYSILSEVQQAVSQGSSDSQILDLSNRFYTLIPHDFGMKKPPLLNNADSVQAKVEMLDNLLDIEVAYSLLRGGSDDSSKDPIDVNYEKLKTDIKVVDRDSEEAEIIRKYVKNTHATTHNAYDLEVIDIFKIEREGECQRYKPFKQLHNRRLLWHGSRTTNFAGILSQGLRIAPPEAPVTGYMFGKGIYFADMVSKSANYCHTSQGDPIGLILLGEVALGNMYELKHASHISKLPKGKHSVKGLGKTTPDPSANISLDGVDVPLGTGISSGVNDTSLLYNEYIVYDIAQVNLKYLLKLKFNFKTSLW
Sequence of PARP-1 (P11103 215-1013 limits assumed): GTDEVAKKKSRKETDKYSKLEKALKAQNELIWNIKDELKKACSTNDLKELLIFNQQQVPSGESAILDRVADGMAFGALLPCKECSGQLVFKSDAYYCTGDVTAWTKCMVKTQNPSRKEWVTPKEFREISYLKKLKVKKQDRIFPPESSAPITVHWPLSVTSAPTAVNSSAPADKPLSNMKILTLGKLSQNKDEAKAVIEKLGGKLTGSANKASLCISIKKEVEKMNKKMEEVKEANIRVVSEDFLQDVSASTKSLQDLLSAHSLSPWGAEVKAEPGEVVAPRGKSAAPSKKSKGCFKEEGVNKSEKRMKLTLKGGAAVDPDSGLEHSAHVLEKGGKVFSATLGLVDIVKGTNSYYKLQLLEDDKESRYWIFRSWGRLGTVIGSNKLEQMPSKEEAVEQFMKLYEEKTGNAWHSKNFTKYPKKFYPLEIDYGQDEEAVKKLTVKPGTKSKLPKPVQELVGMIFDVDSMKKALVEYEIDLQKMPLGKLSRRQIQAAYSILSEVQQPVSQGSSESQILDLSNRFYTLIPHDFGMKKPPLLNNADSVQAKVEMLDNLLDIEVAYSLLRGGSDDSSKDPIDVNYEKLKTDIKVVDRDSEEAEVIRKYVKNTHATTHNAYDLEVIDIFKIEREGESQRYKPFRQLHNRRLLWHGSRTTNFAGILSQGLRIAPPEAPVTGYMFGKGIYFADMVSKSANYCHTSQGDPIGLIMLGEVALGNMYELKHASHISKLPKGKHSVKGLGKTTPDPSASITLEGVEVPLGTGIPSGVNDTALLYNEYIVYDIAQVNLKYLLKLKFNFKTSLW

CN1CCN(CC(=O)N2c3ccccc3C(=O)Nc3cccnc32)CC1 [Pirenzepine]
neuroprotective effect in the presence of raft-disrupting conditions [1]: does not occur | protection from LPS challenge [2]: protect from LPS challenge | protection from LPS challenge [3]: protect from LPS challenge | protection from LPS challenge [4]: protect from LPS challenge | protection from LPS challenge [5]: protect from LPS challenge | PARP-1 inhibition (in words) [6]: rather weak PARP-1 inhibitor

thiocyanato 11-[2-(4-biocytinyl-piperazin-1-yl)-acetyl]-5,11-dihydro-benzo[e]pyrido[3,2-b][1,4]diazepin-6-one [affinity tag]
interaction with PARP-1 [7]: interacts with both proteins | interaction with SIR-2 [8]: interacts with both proteins

From patent publication US8466144B2, “Muscarinic antagonists with parp and sir modulating activity as cytoprotective agents” (Proteosys AG, priority 2004, dated 2013)
